The test system of assay [1] is 26ds (ds26) (DNA, duplex) CAATCGGATCGAATTCGATCCGATTG
Description: spectrofluorimetric titration, one-site saturation fit. To be noted: 60 mM K+; K-cacodylate pH 7.4, 25 °C; 1 μM compound; SD ≤ 0.2 × 10^6.

Assay [2] concerns KRAS21R (DNA, G4) AGGGCGGTGTGGGAAGAGGGA
The assay is described as above. To be noted: 60 mM K+; K-cacodylate pH 7.4, 25 °C; 1 μM compound; SD ≤ 0.2 × 10^6.

Assay [3] deals with colon cancer cell lines with mutated KRAS. Description: Anti-proliferative activity, colon cancer cell lines with mutated KRAS. To be noted: Homo sapiens; range over HCT116 and SW620. Type of assay: cell-based. An excerpt: These differences may be due to differing effects on cellular proliferation mechanisms, on cellular uptake and/or intracellular distribution. Assuming a passive diffusion membrane transport for IQcs, compound 2d is expected to accumulate more inside cells due to its predicted higher lipophilicity than compounds with an additional protonated basic group at physiologic pH (3d and 3e). Similarly, the tetra-cationic porphyrin TMPyP4, which is known to have low cell-membrane permeability, gave higher IC50 values.
HCT116 human colon carcinoma cells, SW620 human colorectal adenocarcinoma and HEK293 T human embryonic kidney cells were grown in Dulbecco's modified Eagle's medium (DMEM) supplemented with 10% fetal bovine serum, and 1% antibiotic/antimycotic (Invitrogen, Grand Island, NY, USA) and maintained at 37°C in a humidified atmosphere of 5% CO2. […] Following 72 h of compound exposure, cell viability was evaluated using the CellTiter 96 AQueous Non-Radioactive Cell Proliferation Assay (Promega, Madison, WI, USA), using 3-(4,5-dimethylthiazol-2-yl)-5-(3-carboxymethoxyphenyl)-2-(4-sulfophenyl)-2H-tetrazolium, inner salt (MTS) as previously described. Cell viability data were expressed as mean ± SEM or mean ± SD from at least three independent experiments. IC50 and IC65 values were determined using GaphPad Prism v.5.00 (GraphPad Software). […]

A further assay relates to mouse KRAS promoter. Set-up: method as in PMID 16687659. To be noted: 3–20 μM 24 hours prior to transfection; cited from earlier work.
The next assay relates to F21T G4. Description: FRET melting competition assay, labelled F21T. Type of assay: binding, human. To be noted: ligand 1 μM, labelled F21T 0.2 μM. On the procedure:
To assess selectivity of the IQc compounds 2d and 3e to different DNA sequences, we performed competitive FRET experiments with 0.2 μM of labelled KRAS21R and F21T G4 and increasing concentrations of two non-fluorescent competitors, 26mer ds-DNA or the human telomeric sequence (HT21). A decrease in ΔTm indicates the displacement of the ligand from labelled G4 by the competitor DNA.
Figure 3 FRET melting competition assay data for (a) 2d and (b) 3e (1 μM) in complex with KRAS21R and F21T G4s (0.2 μM), with increasing concentrations of non-labeled 26ds, HT21 or KRAS21R (0.4 to 25 μM) competitor, in K-cacodylate buffer (pH 7.4, 60 mM K^+).
Oligonucleotide sequences were purchased from Eurofins MWG Synthesis GmbH, Germany or STAB VIDA Genomics Lab, Caparica, Lisbon, Portugal. The labelled oligonucleotides used in the FRET assays had attached the donor fluorophore FAM (6-carboxyfluorescein) and the acceptor fluorophore TAMRA (6-carboxytetramethylrhodamine): KRAS21R: 5′-FAM-[…]-TAMRA-3′; KRAS32R: 5′-FAM-[…]-TAMRA-3′; UTR-1: 5′-FAM-GCGGCGGCGGAGG-TAMRA-3′; UTR-2: 5′-FAM-[…]-TAMRA-3; T-Loop:5′-FAM-[…]-TAMRA-3′; F21T: 5′-FAM-[…]-TAMRA-3′. Non-labelled oligonucleotides were used in FRET competition assays and in the spectroscopic studies: ds26: - d(5′-CAATCGGATCGAATT CGATCCGATTG-3′); KRAS21R: 5′-[…]-3′; HT21: 5′-[…]-3′. […]

The IC50 is the midpoint of a concentration-inhibition curve. Lower therefore signals higher potency.

With `Cn1cc2c3ccccc3nc-2c2cc(Br)ccc21` [2a, 2-bromo-5-methyl-indolo[3,2-c]quinoline], the Ka is 800000 M⁻¹ in assay [1] and 1.7e+06 M⁻¹ in assay [2].
On to `CCN(CC)CCCNc1ccc2c(c1)c1[nH]c3ccccc3c1c[n+]2C` [2d], for which the IC50 in assay [3] fell in the range of 140 to 500 nM.
With `C[n+]1ccc(-c2c3nc(c(-c4cc[n+](C)cc4)c4ccc([nH]4)c(-c4cc[n+](C)cc4)c4ccc([nH]4)c(-c4cc[n+](C)cc4)c4nc2C=C4)C=C3)cc1` [TMPyP4, reference compound], the “Reduction of mouse KRAS promoter activity” value in the assay with mouse KRAS promoter is on record as 80%.
Consider `CCN(CC)CCCNc1ccc2c(c1)[nH]c1c2c[n+](C)c2ccc(NCCCN(CC)CC)cc12.[Cl-]` [3e], for which, in the assay on F21T G4, the “Concentration of competitor KRAS21R reducing the induced thermal stability of F21T by 50%” value was 2 µM.

The values are drawn from publication PMC5382548 (Scientific Reports, 2015).
